# Key:
# VIPR2 = biological target: T1, VIPR2 (Homo sapiens, UniProt P41587); experiment: BRET-based VIPR2 activation assay (CAMYEL cAMP sensor, CHO cells, VIP background); assay type: cell-based; conditions: compared with Compound 1 or other compounds (FIG. 1C, FIG. 5B)
# T1 construct: expressed in transfected cells
# T1 sequence (P41587 24-438): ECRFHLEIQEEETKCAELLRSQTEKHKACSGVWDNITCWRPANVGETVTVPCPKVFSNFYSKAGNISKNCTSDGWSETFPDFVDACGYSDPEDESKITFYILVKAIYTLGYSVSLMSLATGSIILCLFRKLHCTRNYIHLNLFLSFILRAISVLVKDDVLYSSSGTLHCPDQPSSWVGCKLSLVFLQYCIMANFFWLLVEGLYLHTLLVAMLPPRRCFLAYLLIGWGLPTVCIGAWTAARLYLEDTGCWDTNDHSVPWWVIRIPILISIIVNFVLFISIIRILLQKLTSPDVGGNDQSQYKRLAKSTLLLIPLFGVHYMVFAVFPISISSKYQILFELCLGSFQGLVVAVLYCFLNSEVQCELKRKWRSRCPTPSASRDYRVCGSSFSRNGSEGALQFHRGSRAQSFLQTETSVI
# Protocol: FIG. 5A-B. Results of BRET-based VIPR2 activation assays in cells expressing both the VIPR2 receptor and CAMYEL (see FIG. 1A for schematic). a) Inhibitory dose-response curves on treatment of CHO cells with increasing concentrations of a batch of antagonists against a background of VIP activation (VIP=5 nM).
# In such a system, a detector cell is used which expresses both the VIPR2 receptor and “CAMYEL,” a YFP-Epac-RLuc8 BRET sensor construct. This construct includes Epac1, a guanine nucleotide exchange factor activated by direct binding of cAMP, fused with an enhanced YFP and Renilla luciferase 8 (Rluc8) allowing BRET upon cAMP-induced conformational changes (Jiang et al., 2007, J Biol Chem. 282:10576-10584). In response to elevated cAMP levels, there is a conformational change in Epac and therefore a change in the proximity of the fused chromophores, Rluc8 and YFP, resulting in measurable energy transfer. Coexpression of this BRET construct with VIPR2. optionally tagged at the N-terminus with a signal peptide and FLAG epitope (SF-VIPR2), for example in HEK293 cells, allows for detection of a VIPR2-specific response to cAMP. BRET readout may be calculated by quantifying the ratio of the light emitted by the acceptor, YFP (λ=525 nm), over the emission from the donor, RLuc8 (λ=485 nm). The proximity of the donor and acceptor, and therefore the BRET ratio, decreases in the presence of cAMP. In non-limiting specific embodiments, a stable cell line may be generated for this assay using the Flp-In T-Rex system in HEK293 cells. This system allows site-specific single copy integration of the gene of interest and control of expression levels using the Tet-repressor site making receptor expression tetracycline-inducible. For example, a CAMYEL and VIPR2 expressing line may be induced with 0.01 μg/ml tetracycline, then, 24 hours later cells may be collected and distributed into 96-well plates. After treatment with candidate inhibitor compound, for example at 5, 1 and 0.5 μM concentrations, cells may be incubated with the light emitting luciferin, coelenterazine H, for 5 min and incubated for 5 min with VIP at increasing concentrations, for example ranging from 100 pM to 10 μM. The fluorescence and luminescence may then be quantified, for example using a PHERAstar (BMG) plate reader. […] Alternatively, analogous experiments may be performed using human cells harvested from a patient having a VIPR2 copy number variation, for example (but not by way of limitation) pluripotent stem cells prepared from such a patient and then transfected with a CAMYEL construct.
# A series of compounds were prepared using a synthetic method analogous to that set forth in Scheme 1, above, and then tested for their ability to inhibit VIP-induced cAMP elevation and β-arrestin recruitment, as described herein (Discoverx Corporation, Fremont, Calif., US). Compound activities were also tested in a BRET-based assay, as described herein. The results are shown below in Tables 1-4, above.
# Numerous cellular assays were developed that were able to detect VIP responses absent of interference from non-specific vasopressin receptors using this CHO based system. VIPR2 is a Gs coupled receptor. Activation of VIPR2 by VIP leads to both an elevation in cAMP signaling and the recruitment of β-arrestin. A variety of combinations can be transiently transfect into these CHO cells for the assessment of cellular responses to VIP. For the BRET readout CHO cell lines expressing an YFP-Epac-RLuc8 (CAMYEL) BRET sensor were used to detect changes in cAMP. This construct includes Epac1, a guanine nucleotide exchange factor activated by direct binding of cAMP, fused to an enhanced YFP and RLuc8 allowing a change in BRET upon cAMP-induced conformational changes. The key for medium to high throughput screening assays is the use of stable cell lines allowing the continuous assaying of multiple compounds with the ability to generate large numbers of cells for rapid use. […]
# hVIPR1 = biological target: T2, hVIPR1 (Homo sapiens, UniProt P32241); experiment: CAMYEL BRET cAMP assay in transient cell lines expressing hVIPR1; assay type: cell-based; conditions: transient cell lines expressing hVIPR1 and CAMYEL (FIG. 7)
# T2 construct: expressed in transfected cells; host or cells: transient transfection with CAMYEL
# T2 sequence (P32241 31-457): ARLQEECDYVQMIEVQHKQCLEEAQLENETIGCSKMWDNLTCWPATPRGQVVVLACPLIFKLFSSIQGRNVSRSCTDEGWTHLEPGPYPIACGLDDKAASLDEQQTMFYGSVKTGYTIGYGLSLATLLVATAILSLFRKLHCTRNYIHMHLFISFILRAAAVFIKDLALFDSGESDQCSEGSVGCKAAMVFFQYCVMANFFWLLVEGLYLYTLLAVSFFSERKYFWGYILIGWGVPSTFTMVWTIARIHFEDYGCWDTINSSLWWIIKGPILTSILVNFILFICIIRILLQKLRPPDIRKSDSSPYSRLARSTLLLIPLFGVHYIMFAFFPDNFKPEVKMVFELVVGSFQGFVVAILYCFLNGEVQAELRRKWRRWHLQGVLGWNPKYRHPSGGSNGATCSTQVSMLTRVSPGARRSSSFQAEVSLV
# From the text: These assays are now being used for reliable and rapid quantification of VIPR2 responses to various antagonists under development for this receptor. This assay can also be used to evaluate agonists to VIPR2 and allosteric compounds, in addition to addresing the functional selectivity of different compounds, as it is possible to address multiple pathways effected by modulation of VIPR2 using this second messenger detection systems (cAMP and β-arrestin). This cellular assay for the detection of […] is applicable to multiple members of the […]. To this end lines were also developed expressing CAMYEL together with VIPR1 and PACAP1R (both the human and mouse forms) using transient transfection. This allows for the confirmation of specificity of novel antagonists to the VIPR2 receptor in addition to providing the ability to assay VIPR1 and PACAPR1 antagonists, agonists and allosteric modulators. […] These assays allow assays of VIPR2 antagonist, agonists and other compounds acting at […] in a specific, selective, rapid and medium to high throughput manner.
structure (smiles),measurement,setting,value
CC(=O)c1ccc(S(=O)(=O)NC[C@@H](O)C[C@@H](Cc2ccccc2)C(=O)N[C@H]2c3ccccc3C[C@H]2O)cc1 [K],"VIPR2 inhibition in BRET-based assay, in words",VIPR2,significantly improved activity as an antagonist at VIPR2
same,specificity for VIPR2 over hVIPR1,hVIPR1,VIPR2 specificity
